Assay results: patent US20250034216A1, “STEREOSELECTIVE COVALENT LIGANDS FOR ONCOGENIC AND IMMUNOLOGICAL PROTEINS” (The Scripps Research Institute, priority 2021, published 2025)

Tests used:
[1] = target: T1, recombinant FLAG-PSME1 WT or C22A (Homo sapiens, UniProt Q06323); experiment: SEC analysis by western blot; format: cell-based; settings: 22Rv1 cells expressing FLAG-PSME1 WT, 10 μM, 3 h
T1 construct: FLAG; expressed in transfected cells; host or cells: 22Rv1 pLenti3.3/TR (tetracycline-induced)
Description: (§1) For experiments using transiently overexpressed constructs (FLAG-PSME1 WT/C22A, HA-ACAT1 WT/C126A), Stable clonal 22Rv1 pLenti3.3/TR were transfected using polyethylenimine and treated with tetracycline ([…]) for 48 h prior to treatment with electrophilic probes.
(§2) Cells were lysed and fractioned by SEC. After acetone precipitation and resuspension, 4× gel loading buffer was added to eluates, and proteins were resolved using SDS-PAGE (4-20% acrylamide, Tris-glycine gel), and transferred to a nitrocellulose membrane. The membrane was blocked with 5% milk in Tris-buffered saline (20 mM Tris-HCl 7.6, 150 mM NaCl) with 0.1% tween (TBST) and incubated with primary antibody overnight. After TBST wash (3 times), the membrane was incubated with secondary antibody, washed with TBST again, developed with ECL western blotting detection reagents, and recorded on a Bio-Rad ChemiDoc MP. Relative band intensities were analyzed using ImageJ.

[2] = target: T2, recombinant FLAG-PSME1 WT or C22A (Homo sapiens, UniProt Q06323, C22A); experiment: SEC analysis by western blot; format: cell-based; settings: 22Rv1 cells expressing FLAG-PSME1 C22A, 10 μM, 3 h
T2 construct: FLAG; expressed in transfected cells; host or cells: 22Rv1 pLenti3.3/TR (tetracycline-induced)
Description: as §1, §2

PSME1_C106 and PSME2_C91 = target: T3, PSME1_C106 and PSME2_C91 (Homo sapiens, UniProt Q06323); experiment: IA-DTB cysteine reactivity; format: binding; settings: 22Rv1 cells, 20 μM, 1 h
T3 construct: endogenous in cells; host or cells: 22Rv1
Description: (§3) Sample preparation: Cells (adherent: 15 cm dishes, suspension: 2 million cells/mL) were treated with electrophilic probes in situ for indicated times and concentrations, washed with ice-cold PBS, and flash frozen in liquid nitrogen. Cell pellets were lysed by sonication (8 pulses, 40% power) in 500 μL ice-cold PBS supplemented with cOmplete protease inhibitors (1 tablet/10 mL of PBS). Whole cell lysates protein content was measured using a standard DC protein assay (Bio-Rad) and 500 μL (2 mg/mL protein content) were treated with 5 μL of 10 mM 1A-DTB (in DMSO) for 1 h at ambient temperature with occasional vortexing. Samples were methanol-chloroform precipitated with the addition of 500 μL ice-cold MeOH and 200 μL CHCl3, vortexed, and centrifuged (10 min, 10,000 g). Without disrupting the protein disk, both top and bottom layers were aspirated and the protein disk was washed with 1 mL ice-cold MeOH and centrifuged (10 min, 10,000 g). The pellets were allowed to air dry, and then re-suspended in 90 μL buffer (9 M urea, 10 mM DTT, 50 mM TEAB pH 8.5). […]
(§4) Data processing: Cysteine engagement ratios (probe vs DMSO) were calculated for each peptide-spectra match by dividing each TMT reporter ion intensity by the average intensity for the channels corresponding to DMSO treatment. […]

SF3B1 C1111 = target: T4, SF3B1 C1111 (Homo sapiens, UniProt O75533+Q7RTV0); experiment: Parallel reaction monitoring of IA-DTB labeled SF3B1 peptides; format: binding; settings: 22Rv1 cells
T4 construct: Cysteine engagement data from 22Rv1 cells treated; endogenous in cells; host or cells: 22Rv1
Description: Dry peptide samples were reconstituted in a water/acetonitrile (85:15) mixture containing 0.1% formic acid (100 μl) and 15 μl was injected on to an EASY-Spray C18 loading column (5 μm particle size, 100 μm×2 cm; Fisher Scientific, DX164564) and resolved on a custom analytical column (2 μM particle size, 75 μm×15 cm) using a Dionex Ultimate 3000 nano-LC (Thermo Fisher Scientific). Peptides were separated over a 60-min gradient of 15 to 33% acetonitrile (0.1% formic acid) and analyzed on a Q-Exactive instrument (Thermo Fisher Scientific) using a parallel reaction monitoring method targeting the SF3B1 peptide containing C1111 (amino acids 1110-1149, missed tryptic, +3 charge state). Selected precursor ions were isolated and fragmented by high-energy collision dissociation and fragments were detected in the Orbitrap at 17,500 resolution.
Raw data files were uploaded analyzed in Skyline (v.21.1.0.278) to determine the abundance of each peptide in vehicle-treated samples relative to inhibitor-treated samples. Peptide quantification was performed by calculating the sum of the peak areas corresponding to six fragment ions from each peptide. The peptides and fragment ions were preselected from in-house reference spectral libraries acquired in data-dependent acquisition mode to identify authentic spectra for each peptide.

PHF5A_C26 = target: T5, PHF5A_C26 (Homo sapiens, UniProt O75533+Q7RTV0); experiment: IA-DTB cysteine reactivity profiling; format: binding
T5 construct: endogenous in cells
Description: as §3, §4

T4 sequence (O75533 whole entry): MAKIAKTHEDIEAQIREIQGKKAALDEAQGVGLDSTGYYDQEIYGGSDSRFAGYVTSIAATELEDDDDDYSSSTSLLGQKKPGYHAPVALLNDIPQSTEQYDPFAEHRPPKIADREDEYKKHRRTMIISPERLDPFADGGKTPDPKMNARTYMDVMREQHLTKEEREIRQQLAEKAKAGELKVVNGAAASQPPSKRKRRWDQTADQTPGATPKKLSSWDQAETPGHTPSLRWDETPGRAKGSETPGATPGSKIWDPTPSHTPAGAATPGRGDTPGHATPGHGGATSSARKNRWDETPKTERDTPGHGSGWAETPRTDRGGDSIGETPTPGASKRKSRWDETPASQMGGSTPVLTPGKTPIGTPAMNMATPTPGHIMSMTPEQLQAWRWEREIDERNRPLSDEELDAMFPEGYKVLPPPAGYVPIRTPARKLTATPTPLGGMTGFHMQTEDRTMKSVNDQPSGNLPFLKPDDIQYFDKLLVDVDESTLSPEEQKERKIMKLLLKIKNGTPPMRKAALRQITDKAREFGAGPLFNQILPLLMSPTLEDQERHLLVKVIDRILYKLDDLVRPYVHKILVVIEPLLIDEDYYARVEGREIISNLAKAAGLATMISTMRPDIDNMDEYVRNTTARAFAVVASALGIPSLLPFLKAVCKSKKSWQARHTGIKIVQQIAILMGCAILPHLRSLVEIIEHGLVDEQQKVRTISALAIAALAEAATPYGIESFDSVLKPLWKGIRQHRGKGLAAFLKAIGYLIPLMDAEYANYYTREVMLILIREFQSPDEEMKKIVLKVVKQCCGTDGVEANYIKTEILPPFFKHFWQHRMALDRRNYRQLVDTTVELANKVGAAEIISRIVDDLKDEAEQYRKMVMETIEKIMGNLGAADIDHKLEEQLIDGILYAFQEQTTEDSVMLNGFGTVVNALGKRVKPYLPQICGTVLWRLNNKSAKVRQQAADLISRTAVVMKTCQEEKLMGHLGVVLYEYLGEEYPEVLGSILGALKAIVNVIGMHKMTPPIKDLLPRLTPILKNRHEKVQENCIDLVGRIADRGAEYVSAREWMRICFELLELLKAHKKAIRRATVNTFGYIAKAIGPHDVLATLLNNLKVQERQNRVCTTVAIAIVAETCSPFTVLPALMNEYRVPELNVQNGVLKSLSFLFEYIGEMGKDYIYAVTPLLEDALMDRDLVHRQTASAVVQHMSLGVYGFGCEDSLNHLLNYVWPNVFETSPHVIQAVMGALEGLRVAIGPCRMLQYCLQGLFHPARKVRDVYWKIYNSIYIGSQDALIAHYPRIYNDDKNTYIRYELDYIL
T4 sequence (Q7RTV0 whole entry): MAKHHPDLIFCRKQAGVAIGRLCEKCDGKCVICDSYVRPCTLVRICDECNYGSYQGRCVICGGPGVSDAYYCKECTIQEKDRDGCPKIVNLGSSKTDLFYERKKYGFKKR
T4 sequence (Q15393 whole entry partner): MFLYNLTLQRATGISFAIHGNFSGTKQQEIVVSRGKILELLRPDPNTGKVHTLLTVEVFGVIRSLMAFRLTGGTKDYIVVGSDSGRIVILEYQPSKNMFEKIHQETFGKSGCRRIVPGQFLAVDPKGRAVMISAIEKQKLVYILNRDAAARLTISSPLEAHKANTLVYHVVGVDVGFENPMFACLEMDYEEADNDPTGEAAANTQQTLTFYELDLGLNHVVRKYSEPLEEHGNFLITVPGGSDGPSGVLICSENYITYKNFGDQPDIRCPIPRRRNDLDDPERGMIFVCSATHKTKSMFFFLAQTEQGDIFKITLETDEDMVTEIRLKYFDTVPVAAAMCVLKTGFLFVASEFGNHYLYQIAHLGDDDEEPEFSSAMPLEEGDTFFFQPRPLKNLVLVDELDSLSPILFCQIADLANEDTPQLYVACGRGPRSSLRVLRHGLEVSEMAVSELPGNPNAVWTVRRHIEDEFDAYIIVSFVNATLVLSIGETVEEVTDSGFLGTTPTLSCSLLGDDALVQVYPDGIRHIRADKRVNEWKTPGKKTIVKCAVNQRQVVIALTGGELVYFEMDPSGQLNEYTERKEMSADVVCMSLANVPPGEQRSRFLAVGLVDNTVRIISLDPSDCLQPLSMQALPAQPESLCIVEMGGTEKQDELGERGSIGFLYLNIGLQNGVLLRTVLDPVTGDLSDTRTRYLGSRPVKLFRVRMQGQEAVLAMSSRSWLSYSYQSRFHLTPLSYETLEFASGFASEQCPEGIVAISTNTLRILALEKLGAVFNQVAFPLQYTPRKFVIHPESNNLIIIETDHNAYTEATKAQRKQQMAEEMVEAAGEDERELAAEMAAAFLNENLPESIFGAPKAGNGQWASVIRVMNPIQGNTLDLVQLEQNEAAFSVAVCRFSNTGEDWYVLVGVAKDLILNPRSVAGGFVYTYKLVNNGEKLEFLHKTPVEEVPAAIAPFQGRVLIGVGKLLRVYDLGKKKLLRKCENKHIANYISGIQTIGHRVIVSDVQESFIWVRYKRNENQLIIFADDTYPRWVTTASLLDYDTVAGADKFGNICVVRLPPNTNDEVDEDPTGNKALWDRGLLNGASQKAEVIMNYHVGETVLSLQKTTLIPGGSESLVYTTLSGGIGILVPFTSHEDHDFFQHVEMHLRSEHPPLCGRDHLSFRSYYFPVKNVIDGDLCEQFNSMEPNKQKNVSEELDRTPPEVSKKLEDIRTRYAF
T4 sequence (Q9BWJ5 whole entry partner): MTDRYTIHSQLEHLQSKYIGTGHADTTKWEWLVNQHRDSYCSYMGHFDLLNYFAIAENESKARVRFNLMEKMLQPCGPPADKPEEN
T2 sequence (Q06323 whole entry C22A): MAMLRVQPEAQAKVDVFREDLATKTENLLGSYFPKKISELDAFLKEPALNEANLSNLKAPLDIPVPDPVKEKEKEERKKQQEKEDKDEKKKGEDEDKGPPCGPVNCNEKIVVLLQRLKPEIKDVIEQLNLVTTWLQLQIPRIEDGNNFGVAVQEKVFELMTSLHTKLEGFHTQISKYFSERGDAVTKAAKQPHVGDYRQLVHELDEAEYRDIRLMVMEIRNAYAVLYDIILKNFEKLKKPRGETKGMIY
T3 sequence (Q06323 whole entry): as the sequence (Q06323 whole entry C22A) above, with A22C counted along it
T1 sequence (Q06323 whole entry, stated change not applied): as the sequence (Q06323 whole entry C22A) above, with A22C counted along it
T5 sequence (Q7RTV0 whole entry): as the sequence (Q7RTV0 whole entry) above
T5 sequence (O75533 whole entry): as the sequence (O75533 whole entry) above
T5 sequence (Q15393 whole entry partner): as the sequence (Q15393 whole entry partner) above
T5 sequence (Q9BWJ5 whole entry partner): as the sequence (Q9BWJ5 whole entry partner) above

| Structure (SMILES) | SEC size shift of recombinant WT-PSME1 [1] | SEC size shift of recombinant PSME1 C22A mutant [2] | IA-DTB reactivity of PSME1 C106 and PSME2 C91 (PSME1_C106 and PSME2_C91) | IA-DTB labeling of other cysteines in SF3B1 (SF3B1 C1111) | IA-DTB reaction with SF3B1 C1111 (SF3B1 C1111; 20 μM, 24 h) | engagement of PHF5A_C26 (PHF5A_C26) |
| --- | --- | --- | --- | --- | --- | --- |
| C=CC(=O)N1C[C@H](c2ccc(Br)cc2)[C@@H]1C(=O)Nc1cccc2cccnc12 [MY-1B, (2R,3S)-1-acryloyl-3-(4-bromophenyl)-N-(quinolin-8-yl)azetidine-2-carboxamide] | clear size shift | unaffected | striking, stereoselective increases in reactivity | – | – | – |
| C=CC(=O)N1[C@H](c2ccc3c(c2)OCO3)c2[nH]c3ccccc3c2C[C@H]1C(=O)N1CCOCC1 [WX-02-23, 1-((1R,3S)-1-(benzo[d][1,3]dioxol-S-yl)-3-(morpholine-4-carbonyl)-1,3,4,9-tetrahydro-2H-pyrido [3,4-b]indol-2-yl)prop-2-en-1-one] | – | – | – | did not affect other cysteines in SF3B1 | stereoselectively blocked | did not engage |
